Measured values taken from US7968526B2, “Antisense oligonucleotides directed to ribonucleotide reductase R2 and uses thereof in the treatment of cancer” (Lorus Therapeutics Inc., priority 2003, dated 2011).
“Also recorded” adds a separate entry of the source.

Columns and labels:
[1] = Phase I study of SEQ ID NO:1: pharmacokinetics; conditions: patients
Description: On Day 1 a heparinized blood sample was collected at baseline and then at 1, 2, 3, 4 and 6 hours after start of infusion. On Days 8 and 15, a single heparinized sample was taken. On Day 22 a heparinized blood sample was collected prior to the end of infusion and at 0.25, 0.5, 1, 2, 4 and 6 hours following the end of infusion. Plasma was decanted and stored at −70° C.
Pharmacokinetic parameters were assessed. SEQ ID NO:1 was administered using a portable infusion pump in cycles of 21 days CVI followed by one week of rest. […] Doses were doubled in cohorts of 1-3 patients until the appearance of Gr 1 toxicity, with subsequent escalation of 20-30% in cohorts of 3 patients. DLT was defined as Gr 4 neutropenia lasting 3 days or with fever; Gr 4 thrombocytopenia (T) or Gr 3 T with Gr 1 bleeding; or Gr 3 non-hematologic toxicity.

[2] = system: MDA-MB-231 human breast cancer cells; assay: MDA-MB-231 breast tumour xenograft in CD-1 nude mice, combination with taxol or doxorubicin (1.7); format: in vivo, human cells in mice; conditions: doxorubicin 5 mg/kg i.v. weekly
Description: After 52 days the mice were sacrificed and the tumours weighed. […] Mitoxantrone was administered intravenously once at the beginning of the treatments at a dose of 2 mg/kg (FIG. 4A) or once a week for four weeks at a reduced dose of 0.8 mg/kg (FIG. 4B). All treatments were stopped at day 50 (FIG. 4A) or 48 (FIG. 4B), respectively. […] Mitoxantrone was administered intravenously once at the beginning of the treatments at a dose of 2 mg/kg (FIG. 5A) or once a week for four weeks at a reduced dose of 0.8 mg/kg (FIG. 5B). All treatments were stopped at day 42 (FIG. 5A) or 38 (FIG. 5B), respectively. […] A2058 is a metastatic melanoma cell line. […] All treatments were stopped at day 24. […] Taxol was administered intravenously once a week at a dose of 10 mg/kg for three (FIG. 7A) or four weeks (FIG. 7C). Doxorubicin was administered intravenously once a week at a dose of 5 mg/kg for first three weeks (FIG. 7A) or for two weeks (FIG. 7C). All treatments were stopped at day 33 (FIG. 7A) or at day 26 (FIG. 7C), respectively. […] In FIG. 7C, antitumour activities were estimated by the inhibition of tumour volume, which was measured with calipers. Each point represents mean tumour volume calculated from 10 animals per experimental group. […] Taxol was administered intravenously once a week for first three weeks and intraperitoneally once a week for next two weeks at a dose of 10 mg/kg. Cisplatin was administered intravenously once a week for first three weeks and intraperitoneally once a week for next two weeks at a dose of 4 mg/kg. All treatments were stopped at day 40. Antitumour activities were estimated by the inhibition of tumour volume, which was measured with caliper. Each point represents mean tumour volume calculated from 9 animals per experimental group.

[3] = system: mouse fibrosarcoma (R3) cells; assay: Experimental metastasis of R3 cells treated ex vivo, lung nodules in C3H mice (4.1); conditions: for Formation of lung colonies / nodules: R3 cells treated with 0.2 μM + Lipofectin for 4 hr before i.v. injection into C3H mice
Description: • 4.1 Experimental metastasis of mouse fibrosarcoma (R3) cells treated with different antisense oligonucleotides in a syngenetic model was estimated as follows. Aliquots of R3 cell suspension were seeded into 100 mm tissue culture dishes at a density of 2×10^6 and incubated overnight at 37° C. in α-MEM medium supplemented with 10% FBS. Cells were washed once in 10 ml of PBS and treated with 0.2 μM of SEQ ID NO: 1 in the presence of cationic lipid (Lipofectin reagent, final concentration, 10 μg/ml, Gibco BRL) for 4 hr. Cells were treated with either saline alone (C) or lipofectin alone (RE) as controls. Oligonucleotide was removed by washing the cells once with PBS and the cells were trypsinized. Cells were then collected by centrifugation, and approximately 1×10^5 cells suspended in 0.2 ml of PBS were injected into the tail veins of 10 week-old C3H female mice. Estimates of the number of lung tumours were made 20 days later, after excised lungs from individual mice were stained with picric acid dye solution (75% picric acid, 20% formaldehyde, 5% glacial acetic acid). Bars represent mean number of tumour nodules in lungs obtained from 4 to 5 animals per experimental group. […] Aliquots of C8161 cell suspension were seeded into 100 mm tissue culture dishes at a density of 2×10^6 and incubated overnight at 37° C. in α-MEM medium supplemented with 10% FBS. Cells were washed once in 10 ml of PBS and treated with 0.2 μM of SEQ ID NO: 1 in the presence of cationic lipid (Lipofectin reagent, final concentration, 10 μg/ml, Gibco BRL) for 4 hr. Cells were treated with lipofectin alone (CONTROL) as a control. SEQ ID NO:1 was removed by washing the cells once with PBS and the cells were trypsinized. Cells were then collected by centrifugation, and approximately 1×10^5 cells suspended in 0.2 ml of PBS were injected into the tail veins of 6-8 week-old CD-1 athymic female nude mice. Estimates of the number of lung tumours were made 4 weeks later, after excised lungs from individual mice were stained with picric acid dye solution (75% picric acid, 20% formaldehyde, 5% glacial acetic acid). […]

5′-GGCTAAATCGCTCCACCAAG-3′ (all phosphorothioate, sugars by position and methylation of C not given here) [SEQ ID NO: 1, fully phosphorothioated antisense oligonucleotide that hybridizes to the coding region of R2 mRNA]
AUC, mean (coefficient of variation) ([1]; 37 mg/m^2/day CVI): 7.54 (141)^$ μg · hr/ml | Clearance ([1]; 37 mg/m^2/day CVI): 595 L/m^2/day | Cmax, mean (coefficient of variation) ([1]; 37 mg/m^2/day CVI): 0.09 (141) μg/ml | Css, mean (coefficient of variation) ([1]; 37 mg/m^2/day CVI): 0.03 (141) μg/ml | AUC, mean (coefficient of variation) ([1]; 74 mg/m^2/day CVI): 15.5 (141) μg · hr/ml | Cmax, mean (coefficient of variation) ([1]; 74 mg/m^2/day CVI): 0.61 (141) μg/ml | AUC, mean (coefficient of variation) ([1]; 148 mg/m^2/day CVI): 426 (87) μg · hr/ml | Clearance, mean (coefficient of variation) ([1]; 148 mg/m^2/day CVI): 244 (90) L/m^2/day | Cmax, mean (coefficient of variation) ([1]; 148 mg/m^2/day CVI): 2.2 (41) μg/ml | Css, mean (coefficient of variation) ([1]; 148 mg/m^2/day CVI): 0.77 (94) μg/ml | T1/2, mean (coefficient of variation) ([1]; 148 mg/m^2/day CVI): 0.79 (25) hr | AUC, mean (coefficient of variation) ([1]; 185 mg/m^2/day CVI): 340 (67) μg · hr/ml | Clearance, mean (coefficient of variation) ([1]; 185 mg/m^2/day CVI): 558 (119) L/m^2/day | Cmax, mean (coefficient of variation) ([1]; 185 mg/m^2/day CVI): 2.15 (57) μg/ml | Css, mean (coefficient of variation) ([1]; 185 mg/m^2/day CVI): 0.63 (98) μg/ml | T1/2, mean (coefficient of variation) ([1]; 185 mg/m^2/day CVI): 2.74 (171) hr | AUC, mean (coefficient of variation) ([1]; 222 mg/m^2/day CVI): 380 (94) μg · hr/ml | Clearance, mean (coefficient of variation) ([1]; 222 mg/m^2/day CVI): 483 (161) L/m^2/day | Cmax, mean (coefficient of variation) ([1]; 222 mg/m^2/day CVI): 2.98 (99) μg/ml | Css, mean (coefficient of variation) ([1]; 222 mg/m^2/day CVI): 1.24 (87) μg/ml | T1/2, mean (coefficient of variation) ([1]; 222 mg/m^2/day CVI): 1.43 (46) hr | mean steady-state plasma concentration ([1]; phase II dose (185 mg/m^2/day), preliminary analysis): 0.6 µg/mL | t1/2 ([1]; preliminary analysis): about 2 hrs | Tumour weight as % of saline control ([2]; MDA-MB-231 (breast), CD-1, SEQ ID NO:1 10 mg/kg i.v. every other day, Taxol 10 mg/kg i.v. weekly): 12.6% | Antitumour effect (tumour weight / volume, FIG. 7) ([2]; MDA-MB-231, CD-1 nude mice, oligonucleotides 10 mg/kg i.v. every other day, taxol 10 mg/kg): delay of tumour growth compared to saline control in all three experiments; also recorded: superior to the inhibitory effects observed with taxol or doxorubicin alone | Decrease in the number of tumour metastases to lungs ([3]; Mouse Fibrosarcoma (ex vivo)): Decrease by approximately 65% in the number | Formation of lung colonies / nodules [3]: significantly reduced the formation of lung colonies | Formation of lung colonies / nodules ([3]; listed as SEQ ID NO:1): significantly reduces the extent of lung nodule formation
